From article PMC3314994, “Inhibitors of human histone deacetylase with potent activity against the African trypanosome Trypanosoma brucei” (Bioorganic & Medicinal Chemistry Letters, 2012)

How the values were obtained:
Trypanosoma brucei (BSF) [1] = tested on: Trypanosoma brucei (BSF); design: method as in PMID 14726511; details: cited from earlier work
DAC1 = tested on: DAC1; design: method as in PMID 20624217; details: cited from earlier work
DAC3 = tested on: DAC3; design: method as in PMID 20624217; details: cited from earlier work
Trypanosoma brucei (BSF) [2] = assay: Growth inhibition of cultured bloodstream form T. brucei; assay type: cell-based, Trypanosoma brucei (strain 427)
Experimental: Treatment of parasites with micromolar levels of these inhibitors could result in cell death within 4 h (Fig. 1).
[30] Growth inhibitory properties against cultured bloodstream form T. brucei were determined as described previously.[29] Experiments were performed in triplicate and data are presented as ±SD.

HDAC (FDL_HELA) = assay: Histone deacetylase activity in HeLa cell lysates (fluorescent assay kit); assay type: biochemical, Human; details: lysed HeLa cells; read-out: HDAC (FDL_HELA) IC50 ± SD
Experimental: (§1) The compounds from the different structural subclasses were all active as HDAC inhibitors, measured in an assay of enzymes in HeLa cell lysates.[23,24] HeLa cells express multiple HDACs, including HDAC 1, 2, 3, 4, and 8.[25–27] […] To further characterise the compounds with respect to HDAC selectivity, we determined their inhibitory properties against recombinant expressed human HDACs (rhHDAC 1–4, 6–9).[28]
[24] Histone deacetylase activity was determined in lysed Human cervix epithelial cancer HeLa cells. To determine the IC50 of test compound a commercially available fluorescent assay kit was used employing an acetylated enzyme substrate.[23]

rhHDAC 1 = rhHDAC 1 (Homo sapiens, UniProt Q13547); assay: Inhibition of recombinant human HDAC isoforms; assay type: biochemical; details: mean ± SD, triplicate per plate, min two plates; read-out: ED50 rhHDAC 1
Source text: as §1

rhHDAC 2 = rhHDAC 2 (Homo sapiens, UniProt Q92769); assay: Inhibition of recombinant human HDAC isoforms; assay type: biochemical; details: mean ± SD, triplicate per plate, min two plates; read-out: ED50 rhHDAC 2
Source text: as §1

rhHDAC 3 = rhHDAC 3 (Homo sapiens, UniProt O15379); assay: Inhibition of recombinant human HDAC isoforms; assay type: biochemical; details: mean ± SD, triplicate per plate, min two plates; read-out: ED50 rhHDAC 3
Source text: as §1

rhHDAC 4 = rhHDAC 4 (Homo sapiens, UniProt P56524); assay: Inhibition of recombinant human HDAC isoforms; assay type: biochemical; details: mean ± SD, triplicate per plate, min two plates; read-out: ED50 rhHDAC 4
Source text: as §1

rhHDAC 6 = target: T1, rhHDAC 6 (Homo sapiens, UniProt Q9UBN7); assay: Inhibition of recombinant human HDAC isoforms; assay type: biochemical; details: mean ± SD, triplicate per plate, min two plates; read-out: ED50 rhHDAC 6
T1 sequence (Q9UBN7 1-1215): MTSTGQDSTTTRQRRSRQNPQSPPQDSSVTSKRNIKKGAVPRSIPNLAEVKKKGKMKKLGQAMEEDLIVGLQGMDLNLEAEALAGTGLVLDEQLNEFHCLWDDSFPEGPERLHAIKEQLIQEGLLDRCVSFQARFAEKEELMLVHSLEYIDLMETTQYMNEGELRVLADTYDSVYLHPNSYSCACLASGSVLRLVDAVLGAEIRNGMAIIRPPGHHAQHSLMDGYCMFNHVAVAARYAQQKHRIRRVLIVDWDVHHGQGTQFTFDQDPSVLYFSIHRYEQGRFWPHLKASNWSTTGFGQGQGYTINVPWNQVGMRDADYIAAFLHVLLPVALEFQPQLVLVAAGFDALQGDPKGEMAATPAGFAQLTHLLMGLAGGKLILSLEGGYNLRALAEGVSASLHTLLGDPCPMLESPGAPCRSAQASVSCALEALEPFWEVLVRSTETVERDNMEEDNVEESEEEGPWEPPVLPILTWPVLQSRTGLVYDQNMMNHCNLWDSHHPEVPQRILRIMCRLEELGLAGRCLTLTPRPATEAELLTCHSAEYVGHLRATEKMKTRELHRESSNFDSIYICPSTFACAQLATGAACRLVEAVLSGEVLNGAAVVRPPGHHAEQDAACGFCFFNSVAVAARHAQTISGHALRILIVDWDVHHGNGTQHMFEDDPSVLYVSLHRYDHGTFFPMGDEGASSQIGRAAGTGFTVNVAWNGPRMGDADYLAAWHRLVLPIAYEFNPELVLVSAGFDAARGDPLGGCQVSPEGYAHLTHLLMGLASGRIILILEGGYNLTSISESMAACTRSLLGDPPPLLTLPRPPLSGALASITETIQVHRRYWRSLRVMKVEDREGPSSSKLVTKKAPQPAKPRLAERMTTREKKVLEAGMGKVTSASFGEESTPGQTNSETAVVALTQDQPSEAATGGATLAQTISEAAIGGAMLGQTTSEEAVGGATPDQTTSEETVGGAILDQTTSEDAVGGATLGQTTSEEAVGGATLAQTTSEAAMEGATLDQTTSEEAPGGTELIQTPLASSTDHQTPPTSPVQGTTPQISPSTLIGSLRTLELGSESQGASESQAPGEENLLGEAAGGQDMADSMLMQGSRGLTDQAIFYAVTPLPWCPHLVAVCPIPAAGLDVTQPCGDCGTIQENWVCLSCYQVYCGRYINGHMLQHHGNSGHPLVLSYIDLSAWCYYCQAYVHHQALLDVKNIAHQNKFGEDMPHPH
Source text: as §1

rhHDAC 7 = target: T2, rhHDAC 7 (Homo sapiens, UniProt Q8WUI4); assay: Inhibition of recombinant human HDAC isoforms; assay type: biochemical; details: mean ± SD, triplicate per plate, min two plates; read-out: ED50 rhHDAC 7
T2 sequence (Q8WUI4 1-952): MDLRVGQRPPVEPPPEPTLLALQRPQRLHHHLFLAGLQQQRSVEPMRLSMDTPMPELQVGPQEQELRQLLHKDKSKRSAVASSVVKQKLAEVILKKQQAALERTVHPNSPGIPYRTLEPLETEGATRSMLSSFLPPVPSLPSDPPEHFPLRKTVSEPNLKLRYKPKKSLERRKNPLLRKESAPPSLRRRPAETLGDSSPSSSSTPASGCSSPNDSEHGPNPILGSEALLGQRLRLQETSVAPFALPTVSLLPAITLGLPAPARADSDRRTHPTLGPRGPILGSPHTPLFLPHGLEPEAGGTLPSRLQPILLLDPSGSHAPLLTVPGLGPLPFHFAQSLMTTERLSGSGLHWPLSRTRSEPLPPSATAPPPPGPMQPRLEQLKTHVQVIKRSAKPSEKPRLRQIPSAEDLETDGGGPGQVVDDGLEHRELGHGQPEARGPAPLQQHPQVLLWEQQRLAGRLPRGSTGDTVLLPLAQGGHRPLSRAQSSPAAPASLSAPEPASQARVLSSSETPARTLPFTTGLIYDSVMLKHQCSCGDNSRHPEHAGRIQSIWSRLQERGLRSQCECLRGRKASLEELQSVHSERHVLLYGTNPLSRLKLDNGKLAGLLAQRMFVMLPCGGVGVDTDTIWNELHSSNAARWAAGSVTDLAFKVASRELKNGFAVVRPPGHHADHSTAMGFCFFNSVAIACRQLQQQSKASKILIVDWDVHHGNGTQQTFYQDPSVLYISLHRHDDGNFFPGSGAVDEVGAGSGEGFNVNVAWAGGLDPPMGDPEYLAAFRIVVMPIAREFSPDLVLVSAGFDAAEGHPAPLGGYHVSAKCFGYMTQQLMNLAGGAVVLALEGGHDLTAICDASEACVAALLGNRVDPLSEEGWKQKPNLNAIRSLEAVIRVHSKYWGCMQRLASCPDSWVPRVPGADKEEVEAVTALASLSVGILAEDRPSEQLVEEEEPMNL
Source text: as §1

rhHDAC 8 = target: T3, rhHDAC 8 (Homo sapiens, UniProt Q9BY41); assay: Inhibition of recombinant human HDAC isoforms; assay type: biochemical; details: mean ± SD, triplicate per plate, min two plates; read-out: ED50 rhHDAC 8
T3 sequence (Q9BY41 1-377): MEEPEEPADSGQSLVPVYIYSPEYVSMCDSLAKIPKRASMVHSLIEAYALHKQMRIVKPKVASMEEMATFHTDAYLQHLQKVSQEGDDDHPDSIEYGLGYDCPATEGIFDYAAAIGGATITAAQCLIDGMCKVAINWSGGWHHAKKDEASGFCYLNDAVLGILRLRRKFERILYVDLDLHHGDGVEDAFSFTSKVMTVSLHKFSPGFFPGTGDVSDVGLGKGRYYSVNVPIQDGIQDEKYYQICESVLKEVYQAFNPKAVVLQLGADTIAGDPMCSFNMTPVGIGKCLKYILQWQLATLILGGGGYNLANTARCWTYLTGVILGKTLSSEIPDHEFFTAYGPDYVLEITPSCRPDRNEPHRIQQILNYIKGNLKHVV
Source text: as §1

rhHDAC 9 = rhHDAC 9 (Homo sapiens, UniProt Q9UKV0); assay: Inhibition of recombinant human HDAC isoforms; assay type: biochemical; details: mean ± SD, triplicate per plate, min two plates; read-out: ED50 rhHDAC 9
Source text: as §1

rhHDAC 2, sequence (Q92769 whole entry, canonical isoform): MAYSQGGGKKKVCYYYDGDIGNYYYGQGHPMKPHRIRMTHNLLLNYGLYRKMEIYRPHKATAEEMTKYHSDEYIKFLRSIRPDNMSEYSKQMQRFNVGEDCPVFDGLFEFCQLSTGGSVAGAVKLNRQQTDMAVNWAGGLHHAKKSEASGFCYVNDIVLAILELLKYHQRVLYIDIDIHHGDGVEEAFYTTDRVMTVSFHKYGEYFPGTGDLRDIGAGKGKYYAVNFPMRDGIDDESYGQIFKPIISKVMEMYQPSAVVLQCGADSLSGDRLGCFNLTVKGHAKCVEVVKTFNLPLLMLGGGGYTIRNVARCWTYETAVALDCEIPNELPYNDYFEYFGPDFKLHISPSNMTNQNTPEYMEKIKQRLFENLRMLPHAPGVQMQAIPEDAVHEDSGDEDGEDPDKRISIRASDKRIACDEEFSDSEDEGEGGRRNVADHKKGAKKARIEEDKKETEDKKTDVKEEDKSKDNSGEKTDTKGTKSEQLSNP
rhHDAC 9, sequence (Q9UKV0 whole entry, canonical isoform): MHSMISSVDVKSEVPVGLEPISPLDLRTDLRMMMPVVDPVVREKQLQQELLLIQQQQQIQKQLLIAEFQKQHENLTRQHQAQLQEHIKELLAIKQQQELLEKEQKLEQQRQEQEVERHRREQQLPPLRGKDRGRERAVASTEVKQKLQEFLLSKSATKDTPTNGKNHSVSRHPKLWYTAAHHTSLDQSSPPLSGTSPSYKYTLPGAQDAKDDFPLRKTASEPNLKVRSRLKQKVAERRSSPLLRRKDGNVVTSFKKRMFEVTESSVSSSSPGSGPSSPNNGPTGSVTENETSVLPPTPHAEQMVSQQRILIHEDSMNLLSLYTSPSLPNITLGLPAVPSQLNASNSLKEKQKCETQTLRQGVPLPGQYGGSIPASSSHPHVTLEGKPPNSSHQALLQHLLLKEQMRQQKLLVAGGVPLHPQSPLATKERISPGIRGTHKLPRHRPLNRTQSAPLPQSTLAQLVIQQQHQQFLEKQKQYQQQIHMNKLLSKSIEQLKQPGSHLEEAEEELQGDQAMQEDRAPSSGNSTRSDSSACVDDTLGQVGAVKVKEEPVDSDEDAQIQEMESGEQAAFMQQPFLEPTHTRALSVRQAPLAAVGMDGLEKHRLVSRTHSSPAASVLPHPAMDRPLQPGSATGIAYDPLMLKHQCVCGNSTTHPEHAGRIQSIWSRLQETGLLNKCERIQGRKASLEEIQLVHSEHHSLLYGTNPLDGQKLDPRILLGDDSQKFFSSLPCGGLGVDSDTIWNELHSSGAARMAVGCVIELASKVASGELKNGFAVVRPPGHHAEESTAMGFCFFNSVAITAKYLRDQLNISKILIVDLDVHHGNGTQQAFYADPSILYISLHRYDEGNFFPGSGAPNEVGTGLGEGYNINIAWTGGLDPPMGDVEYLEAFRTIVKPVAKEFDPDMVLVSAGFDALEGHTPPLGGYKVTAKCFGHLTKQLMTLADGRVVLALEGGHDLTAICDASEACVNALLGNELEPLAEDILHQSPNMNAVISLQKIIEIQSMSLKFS
rhHDAC 4, sequence (P56524 whole entry, canonical isoform): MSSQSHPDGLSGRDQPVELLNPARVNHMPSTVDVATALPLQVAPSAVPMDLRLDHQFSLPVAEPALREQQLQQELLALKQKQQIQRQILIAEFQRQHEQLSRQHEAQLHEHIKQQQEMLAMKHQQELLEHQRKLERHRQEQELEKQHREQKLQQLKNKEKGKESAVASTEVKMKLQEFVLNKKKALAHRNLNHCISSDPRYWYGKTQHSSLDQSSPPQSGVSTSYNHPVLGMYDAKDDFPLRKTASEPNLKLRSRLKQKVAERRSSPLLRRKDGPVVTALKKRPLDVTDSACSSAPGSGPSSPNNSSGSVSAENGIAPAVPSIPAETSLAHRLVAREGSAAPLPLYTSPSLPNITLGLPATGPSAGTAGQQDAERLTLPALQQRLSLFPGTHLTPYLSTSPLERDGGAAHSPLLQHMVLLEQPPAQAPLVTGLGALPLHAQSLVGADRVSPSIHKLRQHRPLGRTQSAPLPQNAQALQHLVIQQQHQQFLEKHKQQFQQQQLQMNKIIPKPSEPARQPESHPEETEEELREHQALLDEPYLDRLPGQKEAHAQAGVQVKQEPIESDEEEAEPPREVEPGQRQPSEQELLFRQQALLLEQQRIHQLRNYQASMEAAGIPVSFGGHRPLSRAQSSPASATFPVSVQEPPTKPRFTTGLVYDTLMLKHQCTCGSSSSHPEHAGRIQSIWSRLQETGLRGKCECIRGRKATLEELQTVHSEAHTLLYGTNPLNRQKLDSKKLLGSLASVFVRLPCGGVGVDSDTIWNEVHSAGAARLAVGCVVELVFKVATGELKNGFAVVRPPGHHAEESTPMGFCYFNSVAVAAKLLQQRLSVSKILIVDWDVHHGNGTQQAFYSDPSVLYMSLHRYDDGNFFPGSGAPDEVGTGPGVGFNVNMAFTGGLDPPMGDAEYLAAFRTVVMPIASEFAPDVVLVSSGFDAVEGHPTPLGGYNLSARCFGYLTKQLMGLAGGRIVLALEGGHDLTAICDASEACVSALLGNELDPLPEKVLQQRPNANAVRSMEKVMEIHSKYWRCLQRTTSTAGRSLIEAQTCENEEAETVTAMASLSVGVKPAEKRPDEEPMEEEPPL
rhHDAC 1, sequence (Q13547 whole entry, canonical isoform): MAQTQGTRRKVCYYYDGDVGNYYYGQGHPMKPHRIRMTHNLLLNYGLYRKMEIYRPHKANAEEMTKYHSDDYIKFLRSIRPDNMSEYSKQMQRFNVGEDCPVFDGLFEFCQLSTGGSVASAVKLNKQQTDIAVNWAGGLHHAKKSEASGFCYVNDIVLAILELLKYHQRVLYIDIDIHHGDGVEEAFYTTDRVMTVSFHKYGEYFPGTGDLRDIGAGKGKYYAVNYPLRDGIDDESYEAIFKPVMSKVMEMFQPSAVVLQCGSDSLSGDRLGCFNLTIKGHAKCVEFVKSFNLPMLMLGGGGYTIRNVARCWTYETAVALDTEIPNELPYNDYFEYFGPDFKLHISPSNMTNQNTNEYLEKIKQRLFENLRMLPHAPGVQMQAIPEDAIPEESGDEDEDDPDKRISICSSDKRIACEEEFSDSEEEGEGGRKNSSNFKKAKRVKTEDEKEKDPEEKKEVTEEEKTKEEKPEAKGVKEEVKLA
rhHDAC 3, sequence (O15379 whole entry, canonical isoform): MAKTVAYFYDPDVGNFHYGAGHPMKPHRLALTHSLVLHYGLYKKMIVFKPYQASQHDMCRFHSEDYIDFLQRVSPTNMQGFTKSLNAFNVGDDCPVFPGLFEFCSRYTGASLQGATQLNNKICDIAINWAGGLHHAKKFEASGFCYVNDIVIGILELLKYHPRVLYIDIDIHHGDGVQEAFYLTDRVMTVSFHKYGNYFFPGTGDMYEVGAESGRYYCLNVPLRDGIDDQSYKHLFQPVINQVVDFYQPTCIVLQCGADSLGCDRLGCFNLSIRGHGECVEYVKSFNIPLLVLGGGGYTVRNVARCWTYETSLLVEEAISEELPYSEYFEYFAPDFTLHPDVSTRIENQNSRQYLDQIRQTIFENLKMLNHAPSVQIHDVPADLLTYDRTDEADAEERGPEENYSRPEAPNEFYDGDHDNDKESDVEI
rhHDAC 3, sequence (Q9Y618 395-489 partner limits assumed): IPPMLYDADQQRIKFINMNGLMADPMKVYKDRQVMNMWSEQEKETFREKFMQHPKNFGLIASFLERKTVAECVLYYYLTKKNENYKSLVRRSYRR

IC50 (Trypanosoma brucei (BSF) [2]; Trypanosoma brucei, cultured bloodstream form, strain 427, triplicate, read-out: Trypanosoma brucei (BSF) IC50 ± SD) [nM]	IC90 (Trypanosoma brucei (BSF) [2]; Trypanosoma brucei, cultured bloodstream form, strain 427, triplicate, read-out: Trypanosoma brucei (BSF) IC90 ± SD) [nM]	IC50 (HDAC (FDL_HELA)) [nM]	IC50 (rhHDAC 1) [nM]	IC50 (rhHDAC 2) [nM]	IC50 (rhHDAC 3) [nM]	IC50 (rhHDAC 4) [nM]	IC50 (rhHDAC 6) [nM]	IC50 (rhHDAC 7) [nM]	IC50 (rhHDAC 8) [nM]	IC50 (rhHDAC 9) [nM]	Structure (SMILES)	growth of bloodstream form T. brucei (Trypanosoma brucei (BSF) [1])	inhibition of DAC1 activity (DAC1)	inhibition of DAC3 activity (DAC3)	fold less active against T. brucei (Trypanosoma brucei (BSF) [2]; relative to heterocyclic compounds 9 and 16)
–	–	–	–	–	–	–	–	–	–	–	CC(/C=C/C(=O)NO)=C\[C@@H](C)C(=O)c1ccc(N(C)C)cc1 [Trichostatin A]	suppresses growth	inhibitor	inhibitor	–
1540 ± 60	2180 ± 180	48 ± 28	134 ± 6	554 ± 44	97 ± 0.6	373 ± 73	68 ± 13	286 ± 8	573 ± 30	278 ± 65	O=C(/C=C/c1nc2ccccc2o1)NO [Compound 20]	–	–	–	5- to 10 fold
